The experiment relates to apyrase. The experiment in a line: Apyrase inhibition assay (screen for apyrase inhibitors, phosphate release read at 630 nm). The experiment is classed as biochemical. Conditions: inhibitor conc at 1 mM (10 μl added), 3 mM ATP, pH 6.5, room temperature 1 hr. The procedure: Apyrase inhibitors useful as enhancers of pesticidal activity are assessed using an in vitro assay. The method of Windsor, Bio Techniques 33:1024-1030 (November 2002) was used as follows
• 96 well plates were used for the assay: (Greiner bio-one: REF-655901-96 well, PS, F-bottom, Clear, Non-binding)
• Reaction Buffer: 60 mM Hepes; 3 mM MgCl2, 3 mM CaCl2) and 3 mM ATP (pH 6.5) • Development Buffer A: 2% aqueous ammonium molybdate • Development Buffer B: 11% ascorbic acid in 37.5% TCA in water • Stop buffer C: 2% trisodium citrate in 2% acetic acid solution in water
• Add 100 μl of reaction buffer to each well. • Add 10 μl of DMSO (control) or inhibitor/compound or compounds such as N1915 or orthovanadate to each well. (use inhibitor conc at 1 mM; orthovanadate at 2 mM and N1915 at 1 mM) • Add 10 μl of apyrase (concentration based on optimization—Dilute 1 U/μl enzyme to different concentrations such as 0.1 U, 0.05 U, 0.0025, 0.001 U, 0.0005 U—to find a good range) • Incubate plate at room temperature for 1 hr • Mix development buffer A and B in the ratio of 1:1.5 (just before use). • Add 50 μl of A: B mix in each well (incubate for 2 mins) • Add 50 μl of C in each well • Measure/Read Absorbance of plate @630 nm
Inhibitory data for the apyrase assay described above are provided for selected compounds in Table 3. D is inhibition of 0% to 10%, C is inhibition from 10% to 20%, B is inhibition from 20% to 30%, and A is inhibition above 30%. Blank entries signify compounds that were not tested.
`CCCc1ccc(S(=O)(=O)Nc2ccccc2C(F)(F)F)cc1` [Compound A-73, 4-propyl-N-(2-(trifluoromethyl)phenyl) benzenesulfonamide]: the Inhibition result is listed as “D (D is inhibition of 0% to 10%)”.
On to `CCCc1ccc(S(=O)(=O)Nc2ccc(S(=O)(=O)N(C)C)cc2)cc1` [Compound A-97, N,N-dimethyl-4-((4-propylphenyl)sulfonamido) benzenesulfonamide], for which the Inhibition result is “C (C is inhibition from 10% to 20%)”.
The entry for `CCCc1ccc(S(=O)(=O)Nc2c(F)cccc2CO)cc1` [Compound A-16, N-(2-fluoro-6-(hydroxymethyl)phenyl)-4-propylbenzenesulfonamide] is “C (C is inhibition from 10% to 20%)”.
To `CCCc1ccc(S(=O)(=O)Nc2cc(Cl)ccc2N2CCOCC2)cc1` [Compound A-47, N-(5-chloro-2-morpholinophenyl)-4-propylbenzenesulfonamide] belongs “B (B is inhibition from 20% to 30%)”; to `CCCc1ccc(S(=O)(=O)Nc2ccc(C)c(S(N)(=O)=O)c2)cc1` [Compound A-104, N-(4-methyl-3-sulfamoylphenyl)-4-propylbenzenesulfonamide], “D (D is inhibition of 0% to 10%)”.
To `Cn1ccnc(NS(=O)(=O)c2ccc(-c3ccccc3)cc2)c1=O` [Compound A-23, N-(4-methyl-3-oxo-3,4-dihydropyrazin-2-yl)-[1,1′-biphenyl]-4-sulfonamide] belongs “B (B is inhibition from 20% to 30%)”.
For the compound `CCCc1ccc(S(=O)(=O)Nc2cccc(N3CCCC3=O)c2)cc1` [Compound A-7, N-(3-(2-oxopyrrolidin-1-yl)phenyl)-4-propylbenzenesulfonamide], the Inhibition entry is on record as “C (C is inhibition from 10% to 20%)”.
The entry for `CCCCc1ccc(NS(=O)(=O)c2ccc(CCC)cc2)cc1` [Compound A-83, N-(4-butylphenyl)-4-propylbenzenesulfonamide] is “B (B is inhibition from 20% to 30%)”; for `CCCc1ccc(S(=O)(=O)Nc2ccccc2-c2nncn2C)cc1` [Compound A-107, N-(2-(4-methyl-4H-1,2,4-triazol-3-yl)phenyl)-4-propylbenzenesulfonamide] it is “C (C is inhibition from 10% to 20%)”; for `CCCc1ccc(S(=O)(=O)Nc2ccccc2-n2cnnc2C)cc1` [Compound A-22, N-(2-(3-methyl-4H-1,2,4-triazol-4-yl)phenyl)-4-propylbenzenesulfonamide] it is “D (D is inhibition of 0% to 10%)”.
To `Cc1cccc(NS(=O)(=O)c2ccc(OCC(=O)O)cc2)c1` [Compound A-101, 2-(4-(N-(m-tolyl)sulfamoyl)phenoxy) acedtic acid] belongs “B (B is inhibition from 20% to 30%)”; to `O=S(=O)(Nc1nnc[nH]1)c1ccc(-c2ccccc2)cc1` [Compound A-13, N-(4H-1,2,4-triazol-3-yl)-[1,1′-biphenyl]-4-sulfonamide], “D (D is inhibition of 0% to 10%)”.
To `CCCc1ccc(S(=O)(=O)Nc2cccc(C(=O)O)c2)cc1` [Compound A-75, 3-((4-propylphenyl)sulfonamido) benzoic acid] belongs “D (D is inhibition of 0% to 10%)”; to `Cc1cccc(NS(=O)(=O)c2ccc(C=CC(=O)O)cc2)c1` [Compound A-61, 3-(4-(N-(m-tolyl)sulfamoyl)phenyl)acrylic acid], “D (D is inhibition of 0% to 10%)”; to `CCCc1ccc(S(=O)(=O)Nc2ccc(Cn3cccn3)cc2)cc1` [Compound A-111, N-(4-((1H-pyrazol-1-yl)methyl)phenyl)-4-propylbenzenesulfonamide], “D (D is inhibition of 0% to 10%)”.
On to `CCCc1ccc(S(=O)(=O)Nc2ccccc2Cn2cncn2)cc1` [Compound A-113, N-(2-((1H-1,2,4-triazol-1-yl)methyl)phenyl)-4-propylbenzenesulfonamide], for which the Inhibition entry was “D (D is inhibition of 0% to 10%)”.
To `CCCc1ccc(S(=O)(=O)Nc2ccc(-c3ccnc(C)n3)cc2)cc1` [Compound A-40, N-(4-(2-methylpyrimidin-4-yl)phenyl)-4-propylbenzenesulfonamide] belongs “D (D is inhibition of 0% to 10%)”.
The entry for `N#Cc1cnc(Cl)c(NS(=O)(=O)c2ccc(-c3ccccc3)cc2)c1` [Compound A-24, N-(2-chloro-5-cyanopyridin-3-yl)-[1,1′-biphenyl]-4-sulfonamide] is “C (C is inhibition from 10% to 20%)”; for `Cc1cccc(NS(=O)(=O)c2ccc(Cl)cc2)c1` [Compound A-56, 4-chloro-N-(m-tolyl)benzenesulfonamide] it is “C (C is inhibition from 10% to 20%)”; for `CCCc1ccc(S(=O)(=O)Nc2c(C)cccc2C)cc1` [Compound A-92, N-(2,6-dimethylphenyl)-4-propylbenzenesulfonamide] it is “B (B is inhibition from 20% to 30%)”.
To `CCCc1ccc(S(=O)(=O)Nc2ccccc2NS(=O)(=O)c2ccc(F)cc2)cc1` [Compound A-94, 4-fluoro-N-(2-((4-propylphenyl)sulfonamido)phenyl)benzenesulfonamide] belongs “A (A is inhibition above 30%)”.
For `CCCc1ccc(S(=O)(=O)Nc2ccccc2-n2cc(C(=O)OC)nn2)cc1` [Compound A-39, methyl 1-(2-((4-propylphenyl)sulfonamido)phenyl)-1H-1,2,3-triazole-4-carboxylate], the Inhibition result is “D (D is inhibition of 0% to 10%)”.
The entry for `CCCc1ccc(S(=O)(=O)Nc2cccc(S(N)(=O)=O)c2)cc1` [Compound A-72, 4-propyl-N-(3-sulfamoylphenyl)benzene-sulfonamide] is “C (C is inhibition from 10% to 20%)”; for `CCCc1ccc(S(=O)(=O)Nc2ccc(S(=O)(=O)N=C3CCCCCN3)cc2)cc1` [Compound A-52, N-(azepan-2-ylidene)-4-((4-propylphenyl)sulfonamido) benzenesulfonamide] it is “C (C is inhibition from 10% to 20%)”.
For `CCCc1ccc(S(=O)(=O)Nc2ccc3c(c2)OCCO3)cc1` [Compound A-54, N-(2,3-dihydrobenzo[b][1,4]dioxin-6-yl)-4-propylbenzenesulfonamide], the Inhibition result was “D (D is inhibition of 0% to 10%)”.
The entry for `CCCc1ccc(S(=O)(=O)Nc2ccc(Cl)c(C(=O)O)c2)cc1` [Compound A-102, 2-chloro-5-((4-propylphenyl)sulfonamido) benzoic acid] is “D (D is inhibition of 0% to 10%)”; for `CCCc1ccc(S(=O)(=O)Nc2ccc(CC(=O)O)cc2)cc1` [Compound A-46, 2-(4-((4-propylphenyl)sulfonamido)phenyl)acetic acid] it is “A (A is inhibition above 30%)”; for `CCCc1ccc(S(=O)(=O)Nc2cccc(NC(C)=O)c2)cc1` [Compound A-77, N-(3-((4-propylphenyl)sulfonamido)phenyl)acetamide] it is “D (D is inhibition of 0% to 10%)”.
Turning to `CCCc1ccc(S(=O)(=O)Nc2cc(OC)c(OC)cc2C(=O)O)cc1` [Compound A-45, 4,5-dimethoxy-2-((4-propylphenyl)sulfonamido) benzoic acid], the Inhibition result was “C (C is inhibition from 10% to 20%)”.
The entry for `CCCc1ccc(S(=O)(=O)Nc2cc(OC)c(Cl)cc2OC)cc1` [Compound A-68, N-(4-chloro-2,5-dimethoxyphenyl)-4-propylbenzenesulfonamide] is “D (D is inhibition of 0% to 10%)”.
To `CCCc1ccc(S(=O)(=O)Nc2ccc(C)c(S(=O)(=O)N(C)C)c2)cc1` [Compound A-89, N,N,2-trimethyl-5-((4-propylphenyl)sulfonamido) benzenesulfonamide] belongs “D (D is inhibition of 0% to 10%)”; to `CCCc1ccc(S(=O)(=O)Nc2ccc(-c3nc(C)cc(=O)[nH]3)cc2)cc1` [Compound A-120, N-(4-(4-methyl-6-oxo-1,6-dihydropyrimidin-2-yl)phenyl)-4-propylbenzenesulfonamide], “B (B is inhibition from 20% to 30%)”; to `COC(=O)c1ccc(S(=O)(=O)Nc2cccc(C)c2)cc1` [Compound A-12, methyl 4-(N-(m-tolyl)sulfamoyl)benzoate], “C (C is inhibition from 10% to 20%)”.
The entry for `CCCc1ccc(S(=O)(=O)Nc2ccc(F)c(NC(C)=O)c2)cc1` [Compound A-35, N-(2-fluoro-5-((4-propylphenyl)sulfonamido)phenyl)acetamide] is “D (D is inhibition of 0% to 10%)”; for `Cc1cccc(NS(=O)(=O)c2ccc(NC(=O)Nc3ccc([N+](=O)[O-])cc3)cc2)c1` [Compound A-98, 4-(3-(4-nitrophenyl)ureido)-N-(m-tolyl)benzenesulfonamide] it is “A (A is inhibition above 30%)”.
With `CCCc1ccc(S(=O)(=O)Nc2ccc(NC(=O)C3CC3)cc2)cc1` [Compound A-31, N-(4-((4-propylphenyl)sulfonamido)phenyl)cyclopropanecarbox-amide], the Inhibition result was “D (D is inhibition of 0% to 10%)”.

The values are drawn from US20250275539A1, “APYRASE INHIBITORS” (Texas Crop Science, Inc., priority 2024, published 2025).
